The target of the experiment is mGluR4 (UniProt Q14833). Nature of the experiment: mGluR4 potentiation assay: increase in response to an EC20 concentration of agonist (species not given). The class given is cell-based. Conditions: EC50 for potentiation of mGluR4; table does not state human or rat. The method, then:
The disclosed compounds and compositions can be evaluated for their ability to act as a potentiator of metabotropic glutamate receptor activity, in particular mGluR4 activity, by any suitable known methodology known in the art. For example, Chinese Hamster Ovary (CHO) cells transfected with human mGluR4 or […] co-transfected with rat mGluR4 and the G-protein regulated Inwardly Rectifying Potassium channel (GIRK) were plated in clear bottom assay plates for assay in a Hamamatsu FDSS Fluorometric Plate Reader. The cells were loaded with either a Ca2+-sensitive fluorescent dye or the thallium responsive dye and the plates were washed and placed into a suitable kinetic plate reader. For human mGluR4 assays, a fluorescence baseline was established for 3-5 seconds, the disclosed compounds were then added to the cells, and the response in cells was measured. Approximately two and a half minutes later, a concentration of mGluR4 orthosteric agonist (e.g. glutamate or L-AP4) eliciting approximately 20% (EC20) of the maximal agonist response was added to the cells, and the response was measured. Two minutes later, a concentration of mGluR4 agonist (e.g. glutamate or L-AP4) eliciting 80% (EC80) of the maximal agonist response was added to the cells, and the response was measured. For rat mGluR4/GIRK experiments, a baseline was established for approximately five seconds, disclosed compounds were added, and either an EC20 or EC80 concentration of agonist was added approximately two and one half minutes later. Potentiation of the agonist response of mGluR4 by the disclosed compounds was observed as an increase in response to the EC20 concentration of agonist in the presence of compound compared to the response to agonist in the absence of compound. Similarly, antagonism of the agonist response of mGluR4 by the disclosed compounds was observed as a decrease in response to the EC80 concentration of agonist in the presence of compound compared to the response to agonist in the absence of compound.
The above described assay operated in two modes. In the first mode, a range of concentrations of the disclosed compounds are added to cells, followed by a single fixed concentration of agonist. If the compound acts as a potentiator, an EC50 value for potentiation and a maximum extent of potentiation by the compound at this concentration of agonist is determined by non-linear curve fitting. If the compound acts as a noncompetitive antagonist, an IC50 value is determined by non-linear curve fitting. In the second mode, several fixed concentrations of the disclosed compounds are added to various wells on a plate, followed by a range in concentrations of agonist for each concentration of disclosed compound. The EC50 values for the agonist at each concentration of compound are determined by non-linear curve fitting. A decrease in the EC50 value of the agonist with increasing concentrations of the sample compound (a leftward shift of the agonist concentration-response curve) is an indication of the degree of mGluR4 potentiation at a given concentration of the sample compound. A decrease in the maximal response of the agonist with increasing concentrations of the sample compounds, with or without a rightward shift in agonist potency, is an indication of the degree of noncompetitive antagonism at mGluR4. The second mode also indicates whether the sample compounds also affect the maximum response to mGluR4 to agonists.
These compounds are positive allosteric modulators (potentiators) of human and rat mGluR4 and were selective for mGluR4 compared to the other seven subtypes of metabotropic glutamate receptors.
Broadly, the EC50 is the concentration giving half of the maximal effect. `Cc1cc(Cn2nc(C)c3cc(Nc4n[nH]c5cccnc45)ccc32)no1` [Example 76, N-(3-methyl-1-((5-methylisoxazol-3-yl)methyl)-1H-indazol-5-yl)-1H-pyrazolo[4,3-b]pyridin-3-amine]: the concentration giving a half-maximal response (EC50) was found to be 0.051 µM. With `Cc1nn(C(C)C)c2ncc(Nc3n[nH]c4ccccc34)cc12` [Example 269, N-(1H-indazol-3-yl)-1-isopropyl-3-methyl-1H-pyrazolo[3,4-b]pyridin-5-amine], the EC50 is 2.55 µM. As for `CCC(C)n1nc2ccc(Nc3n[nH]c4cccnc34)cc2c1C` (stereo not drawn) [Example 105, N-(2-(sec-butyl)-3-methyl-2H-indazol-5-yl)-1H-pyrazolo[4,3-b]pyridin-3-amine], the EC50 is above 10 µM. As for `Clc1nn(CC2CC2)c2ccc(Nc3n[nH]c4cccnc34)cc12` [Example 284, N-(3-chloro-1-(cyclopropylmethyl)-1H-indazol-5-yl)-1H-pyrazolo[4,3-b]pyridin-3-amine], the EC50 was above 10 µM. To `Cc1nn(Cc2ccc3ccccc3n2)c2ccc(Nc3n[nH]c4cccnc34)cc12` [Example 125, N-(3-methyl-1-(quinolin-2-ylmethyl)-1H-indazol-5-yl)-1H-pyrazolo[4,3-b]pyridin-3-amine] belongs 1.53 µM; to `Cn1ncc2c(Cl)cc(Nc3n[nH]c4cccnc34)cc21` [Example 2, N-(4-chloro-1-methyl-1H-indazol-6-yl)-1H-pyrazolo[4,3-b]pyridin-3-amine], 0.029 µM.

Turning to `CC(C)n1ncc2cc(Nc3n[nH]c4nccnc34)cc(Cl)c21` [Example 60, N-(7-chloro-1-isopropyl-1H-indazol-5-yl)-1H-pyrazolo[3,4-b]pyrazin-3-amine], the 50% effective concentration (EC50) was 0.79 µM. Regarding `COc1ccc(-c2nn(C)c3cc(Nc4n[nH]c5cccnc45)ccc23)cn1` [Example 180, N-[3-(6-methoxy-3-pyridyl)-1-methyl-indazol-6-yl]-1H-pyrazolo[4,3-b]pyridin-3-amine], the EC50 is above 10 µM. To `Cn1nc(OCC2COC2)c2ccc(Nc3n[nH]c4cccnc34)cc21` [Example 195, N-[1-methyl-3-(oxetan-3-ylmethoxy)indazol-6-yl]-1H-pyrazolo[4,3-b]pyridin-3-amine] belongs 0.0966 µM; to `c1cnc2c(Nc3ccc4[nH]ncc4c3)n[nH]c2c1` [Example 88, N-(1H-indazol-5-yl)-1H-pyrazolo[4,3-b]pyridin-3-amine], 0.072 µM; to `Cn1nc(C(=O)NCCS(C)(=O)=O)c2ccc(Nc3n[nH]c4cccnc34)cc21` [Example 159, 1-methyl-N-(2-methylsulfonylethyl)-6-(1H-pyrazolo[4,3-b]pyridin-3-ylamino)indazole-3-carboxamide], 3.94 µM. To `Cn1ncc2c(Cl)cc(Nc3n[nH]c4nccnc34)cc21` [Example 8, N-(4-chloro-1-methyl-1H-indazol-6-yl)-1H-pyrazolo[3,4-b]pyrazin-3-amine] belongs 0.016 µM; to `Cn1nc(S(C)(=O)=O)c2ccc(Nc3n[nH]c4cccnc34)cc21` [Example 186, N-(1-methyl-3-(methylsulfonyl)-1H-indazol-6-yl)-1H-pyrazolo[4,3-b]pyridin-3-amine], 1.88 µM; to `CCc1nn(C)c2cc(Nc3n[nH]c4cccnc34)ccc12` [Example 24, N-(3-ethyl-1-methyl-1H-indazol-6-yl)-1H-pyrazolo[4,3-b]pyridin-3-amine], 0.038 µM. In the case of `Cc1nn(C2CCOCC2)c2ccc(Nc3n[nH]c4cccnc34)cc12` [Example 117, N-(3-methyl-1-(tetrahydro-2H-pyran-4-yl)-1H-indazol-5-yl)-1H-pyrazolo[4,3-b]pyridin-3-amine], the EC50 was 1.46 µM. On to `Cn1cc2cc(Nc3n[nH]c4cccnc34)ccc2n1` [Example 56, N-(2-methyl-2H-indazol-5-yl)-1H-pyrazolo[4,3-b]pyridin-3-amine], for which the EC50 stood at 0.315 µM. As to `Cc1cc(Cn2nc(C)c3cc(Nc4n[nH]c5ccccc45)ccc32)no1` [Example 78, N-(3-methyl-1-((5-methylisoxazol-3-yl)methyl)-1H-indazol-5-yl)-1H-indazol-3-amine], the EC50 came out at 0.129 µM.

With `c1cnc2c(Nc3cnc4cnn(CC5CCC5)c4c3)n[nH]c2n1` [Example 149, N-(1-(cyclobutylmethyl)-1H-pyrazolo[4,3-b]pyridin-6-yl)-1H-pyrazolo[3,4-b]pyrazin-3-amine], the EC50 was above 10 µM. With `O=C(O)Cn1nc(Cl)c2cc(Nc3n[nH]c4cccnc34)ccc21` [Example 278, 2-(5-((1H-pyrazolo[4,3-b]pyridin-3-yl)amino)-3-chloro-1H-indazol-1-yl)acetic acid], the EC50 turned out to be 1.56 µM. With `Cc1nn(CC(F)(F)F)c2ccc(Nc3n[nH]c4cccnc34)cc12` [Example 116, N-(3-methyl-1-(2,2,2-trifluoroethyl)-1H-indazol-5-yl)-1H-pyrazolo[4,3-b]pyridin-3-amine], the EC50 worked out at 0.096 µM.

Turning to `Cn1nc(C(C)(C)O)c2ccc(Nc3n[nH]c4cccnc34)cc21` [Example 54, 2-(6-((1H-pyrazolo[4,3-b]pyridin-3-yl)amino)-1-methyl-1H-indazol-3-yl)propan-2-ol], the EC50 was determined as 0.865 µM. Consider `Cc1ccccc1Cc1nn(C)c2cc(Nc3n[nH]c4nccnc34)ccc12` [Example 49, N-(1-methyl-3-(2-methylbenzyl)-1H-indazol-6-yl)-1H-pyrazolo[3,4-b]pyrazin-3-amine], for which the EC50 came out at 4.6 µM.

For `CC(c1nn(C)c2cc(Nc3n[nH]c4cccnc34)ccc12)C(F)(F)F` (stereo not drawn) [Example 46, N-(1-methyl-3-(1,1,1-trifluoropropan-2-yl)-1H-indazol-6-yl)-1H-pyrazolo[4,3-b]pyridin-3-amine], the EC50 was 0.215 µM. As for `Cn1ncc2c(Cl)cc(Nc3n[nH]c4ncccc34)cc21` [Example 6, N-(4-chloro-1-methyl-1H-indazol-6-yl)-1H-pyrazolo[3,4-b]pyridin-3-amine], the EC50 was 0.051 µM. To `Cn1nc(C2CC2)c2ccc(Nc3n[nH]c4ncc(F)cc34)cc21` [Example 5, N-(3-cyclopropyl-1-methyl-1H-indazol-6-yl)-5-fluoro-1H-pyrazolo[3,4-b]pyridin-3-amine] belongs 0.364 µM; to `[2H]C([2H])([2H])Oc1nn(C)c2cc(Nc3n[nH]c4cccnc34)ccc12` [Example 240, N-(3-(methoxy-d3)-1-methyl-1H-indazol-6-yl)-1H-pyrazolo[4,3-b]pyridin-3-amine], 0.294 µM; to `[2H]C([2H])([2H])n1nc(C)c2cc(Nc3n[nH]c4cccnc34)ccc21` [Example 123, N-(3-methyl-1-(methyl-d3)-1H-indazol-5-yl)-1H-pyrazolo[4,3-b]pyridin-3-amine], 0.218 µM. On to `CC1CCC(=O)N1c1nn(C)c2cc(Nc3n[nH]c4cccnc34)ccc12` (stereo not drawn) [Example 42, 1-(6-((1H-pyrazolo[4,3-b]pyridin-3-yl)amino)-1-methyl-1H-indazol-3-yl)-5-methylpyrrolidin-2-one], for which the EC50 turned out to be 4 µM. Consider `CC(=O)c1nn(C)c2cc(Nc3n[nH]c4cccnc34)ccc12` [Example 21, 1-(6-((1H-pyrazolo[4,3-b]pyridin-3-yl)amino)-1-methyl-1H-indazol-3-yl)ethan-1-one], for which the concentration for a half-maximal effect (EC50) was 0.764 µM. Regarding `Cn1ncc2cc(Nc3n[nH]c4nccnc34)ccc21` [Example 84], the EC50 came to 0.818 µM.

Take `c1cnc2c(Nc3ccc4nn(CC5CCC5)cc4c3)n[nH]c2n1` [Example 87, N-(2-(cyclobutylmethyl)-2H-indazol-5-yl)-1H-pyrazolo[3,4-b]pyrazin-3-amine]: the concentration giving a half-maximal response (EC50) stood at 0.749 µM. For the compound `Cn1nc(OC2CCS(=O)(=O)CC2)c2ccc(Nc3n[nH]c4cccnc34)cc21` [Example 192, N-[3-(1,1-dioxothian-4-yl)oxy-1-methyl-indazol-6-yl]-1H-pyrazolo[4,3-b]pyridin-3-amine], the EC50 turned out to be 0.185 µM. Turning to `Cn1nc(OCC2CCCCO2)c2ccc(Nc3n[nH]c4cccnc34)cc21` (stereo not drawn) [Example 181, N-(1-methyl-3-((tetrahydro-2H-pyran-2-yl)methoxy)-1H-indazol-6-yl)-1H-pyrazolo[4,3-b]pyridin-3-amine], the EC50 was 0.087 µM.
